Source: patent publication US20140235643A1, “NOVEL QUINOXALINE INHIBITORS OF PI3K” (GILEAD CALISTOGA LLC, priority 2011, published 2014)

Columns and labels:
PI3Kα (p110α/p85α) = target: T1, PI3Kα (p110α/p85α) (Homo sapiens, UniProt P42336); test: PI3K biochemical enzyme assay (Adapta universal kinase assay), p110 alpha/p85 alpha; conditions: for IC50: Table 1, lower part, read-out: PI3Kα IC50
T1 construct: purchased Invitrogen
Experimental: (§1) This example describes a method of obtaining in vitro activity data concerning the effect of compounds of on various PI3K isoforms. The effect of compounds on the kinase activity of Class I PI3Ks was measured at Invitrogen by using the Adapta® universal kinase assay. It was a homogenous, fluorescent based immunoassay for the detection of ADP produced by the kinase reaction. This assay can be divided into two phases: a kinase reaction phase, and an ADP detection phase. In the kinase reaction phase, all components required for the kinase reaction were added to the well, and the reaction was allowed to incubate for 60 minutes. After the reaction, a detection solution consisting of a europium labeled anti-ADP antibody, an Alexa Fluor® 647 labeled ADP tracer, and EDTA (to stop the kinase reaction) was added to the assay well. ADP formed by the kinase reaction (in the absence of an inhibitor) displaced the Alexa Fluor® 647 labeled ADP tracer from the antibody, resulting in a decrease in the TR-FRET signal.
(§2) ADP formation was determined by calculating the emission ratio from the assay well. The emission ratio was calculated by dividing the intensity of the tracer (acceptor) emission by the intensity of the Eu (donor) emission at 615 nm as shown in the equation below.
(§3) The Test Compounds were screened in 1% DMSO (final) in the well. All Substrate/Kinase Mixtures were diluted to a 2× working concentration in the appropriate Kinase Buffer as described below for the individual kinase:
The 2× p110 alpha/p85 alpha/PIP2:PS mixture was prepared in 50 mM HEPES pH 7.5, 100 mM NaCl, 0.03% CHAPS, 3 mM mgCl2, 1 mM EGTA. The final 10 μL Kinase Reaction consisted of 0.3-1.5 ng p110 alpha/p85 alpha and 50 μM PIP2:PS in 32.5 mM HEPES pH 7.5, 50 mM NaCl, 0.015% CHAPS, 1.5 mM mgCl2, 0.5 mM EGTA. After the 1 hour Kinase Reaction incubation, 5 μL of Detection Mix was added.
(§4) The Detection mix consisted of EDTA (30 mM), Eu-anti-ADP antibody (30 nM) and ADP tracer. All ATP Solutions were diluted to a 4× working concentration in water and used at the Km apparent concentrations for each individual kinase.

PI3Kγ = target: T2, PI3Kγ (Mus musculus, UniProt Q9JHG7); test: PI3Kγ-dependent cell-based assay: C5a-mediated AKT phosphorylation in RAW-264 cells; parameters: species or system murine; conditions: C5a-induced AKT phosphorylation, RAW-264 macrophages
T2 construct: endogenous in cells; host or cells: RAW-264 macrophage cells (ATCC)
Experimental: (§5) PDGF-BB-induced AKT phosphorylation in Swiss-3T3 fibroblasts is mediated by p110α. C5a-induced AKT phosphorylation in RAW-264 murine macrophages is mediated exclusively by p110γ.
PI3Kγ-Dependent Cell-Based Assay: C5a-Mediated AKT Phosphorylation in RAW-264 Cells
RAW-264 macrophage cells (American Type Culture Collection) were cultured with Dulbecco's modified Eagle medium (DMEM) containing 10% fetal bovine serum and the antibiotics penicillin and streptomycin. Cells were seeded on a 96-well Tissue Culture Plate at 100,000 to 200,000 cells/well the day before the experiment. Next day, cells were starved for 2 hr in 0.1% FBS containing medium. The cells were pretreated with inhibitors or DMSO for 2 hr and stimulated for 5 min with 75 ng/ml C5a (R&D) at 37° C. in 5% CO2. The culture medium was removed and cells were fixed for 20 min at room temperature by addition of 100 μl of 4% cell fixing buffer to each well. AKT phosphorylation and total AKT was detected by ELISA.
(§6) Detection of Phospho-Ser-473 AKT and Total AKT by ELISA
(§7) The fixed cells were washed twice with 150 μl of wash buffer (WB) and quenched by incubating with 100 μl of Quenching Buffer for 20 min at room temperature. Cells were washed once with 150 μl WB and blocked by incubating with 100 μl of Blocking Buffer for 1 hr at room temperature. Cells were incubated with 50 μl of primary antibody diluted in Blocking Buffer, either phospho-Ser-473 AKT specific (1:150 dilution) or total-AKT antibody (1:200 dilution), to each specific well. The negative control wells contained 50 μl of Blocking Buffer. Plates were sealed with plate sealing film and incubated overnight at 4° C. Cells were washed twice with 150 μl WB followed by addition of 50 μl per well of DELFIA secondary antibody (50 ng/well, diluted in DELFIA Assay Buffer). After 2 hr incubation at room temperature, cells were washed 4 times with 150 μl of Europium Wash Solution followed by addition of 100 μl of DELFIA Enhancing Solution to each well. Plates were incubated for 5 min in the dark and fluorescent signal was read using SpectraMax M5™ (Molecular Devices). Total AKT level was determined to verify equal cell number per well. The average background fluorescence values from wells that received vehicle control in the absence of PDGF-BB or C5a were subtracted from all the values of experimental conditions. Fluorescence values corresponding to phosphorylated AKT from wells that received PDGF-BB or C5a were normalized to 100% and compound effect was plotted as % change relative to the vehicle control.

PI3Kγ (p110 gamma) = target: T3, PI3Kγ (p110 gamma) (Homo sapiens, UniProt P48736); test: PI3K biochemical enzyme assay (Adapta universal kinase assay), p110 gamma; conditions: for inhibition at 1 µM / inhibition at 10 µM: read-out: PI3Kγ % inhib; for IC50: Table 1, lower part, read-out: PI3Kγ IC50; for increase in gamma potency compared to analog without amino substituent on the purine ring: Q17 vs Q16, Q15 vs Q14
T3 construct: purchased Invitrogen
Experimental: as §1, §2, §3
The 2× p110 gamma/PIP2:PS mixture was prepared in 50 mM HEPES pH 7.5, 1 mM EGTA, 3 mM mgCl2. The final […] Kinase Reaction consisted of 3.5-26 ng p110 gamma and 50 μM PIP2:PS in 32.5 mM HEPES pH 7.5, 0.5 mM EGTA, 1.5 mM mgCl2. After the 1 hour Kinase Reaction incubation, 5 μL of Detection Mix was added.
as §4

PI3Kα = target: T4, PI3Kα (Mus musculus, UniProt P42337); test: PI3Kα-dependent cell-based assay: PDGF-BB mediated AKT phosphorylation in Swiss-3T3 cells; conditions: PDGF-BB-induced AKT phosphorylation, Swiss-3T3 fibroblasts
T4 construct: endogenous in cells; host or cells: Swiss-3T3 fibroblasts (ATCC)
Experimental: as §5
PI3Kα-Dependent Cell-Based Assay: PDGF-BB Mediated AKT Phosphorylation in Swiss-3T3 Cells
Swiss-3T3 fibroblasts (American Type Culture Collection) were cultured with DMEM containing 10% fetal bovine serum and the antibiotics penicillin and streptomycin. Cells were seeded on a 96-well Tissue Culture Plate at 25,000 cells/well and allowed to reach at least 90% confluency. The cells were starved for 2 to 12 hr in 0.1% FBS containing medium and then were pretreated with inhibitors or DMSO for 2 hr. The cells were stimulated for 15 min with 10 ng/ml PDGF-BB (Cell Signaling Technology) at 37° C. in 5% CO2. The culture medium was removed and cells were fixed for 20 min at room temperature by addition of 100 μl of 4% cell fixing buffer to each well. AKT phosphorylation and total AKT was detected by ELISA.
as §6, §7

PI3Kδ (p110δ/p85α) = target: T5, PI3Kδ (p110δ/p85α) (Homo sapiens, UniProt O00329); test: PI3K biochemical enzyme assay (Adapta universal kinase assay), p110 delta/p85 alpha; conditions: for IC50: Table 1, lower part, read-out: PI3Kδ IC50
T5 construct: purchased Invitrogen
Experimental: as §1, §2, §3
The 2× p110 delta/p85 alpha/PIP2:PS mixture was prepared in 50 mM HEPES pH 7.5, 100 mM NaCl, 0.03% CHAPS, 3 mM mgCl2, 1 mM EGTA. The final 10 μL Kinase Reaction consisted of 0.35-2.6 ng p110 delta/p85 alpha and 50 μM PIP2:PS in 32.5 mM HEPES pH 7.5, 50 mM NaCl, 0.015% CHAPS, 1.5 mM mgCl2, 0.5 mM EGTA. After the 1 hour Kinase Reaction incubation, […] of Detection Mix was added.
as §4

PI3Kβ (p110β/p85α) = target: T6, PI3Kβ (p110β/p85α) (Homo sapiens, UniProt P42338); test: PI3K biochemical enzyme assay (Adapta universal kinase assay), p110 beta/p85 alpha; conditions: for inhibition at 10 µM: read-out: PI3Kβ % inhib; for IC50: Table 1, lower part, read-out: PI3Kβ IC50
T6 construct: purchased Invitrogen
Experimental: as §1, §2, §3
The 2× p 110beta/p85 alpha/PIP2:PS mixture was prepared in 50 mM HEPES pH 7.5, 100 mM NaCl, 0.03% CHAPS, 1 mM EGTA, 3 mM mgCl2, and 2 mM DTT. The final 10 μL Kinase Reaction consisted of 35.4 ng p110 beta/p85 alpha and 50 μM PIP2:PS. After the 1 hour Kinase Reaction incubation, 5 μL of Detection Mix was added.
as §4

T3 sequence (P48736 whole entry): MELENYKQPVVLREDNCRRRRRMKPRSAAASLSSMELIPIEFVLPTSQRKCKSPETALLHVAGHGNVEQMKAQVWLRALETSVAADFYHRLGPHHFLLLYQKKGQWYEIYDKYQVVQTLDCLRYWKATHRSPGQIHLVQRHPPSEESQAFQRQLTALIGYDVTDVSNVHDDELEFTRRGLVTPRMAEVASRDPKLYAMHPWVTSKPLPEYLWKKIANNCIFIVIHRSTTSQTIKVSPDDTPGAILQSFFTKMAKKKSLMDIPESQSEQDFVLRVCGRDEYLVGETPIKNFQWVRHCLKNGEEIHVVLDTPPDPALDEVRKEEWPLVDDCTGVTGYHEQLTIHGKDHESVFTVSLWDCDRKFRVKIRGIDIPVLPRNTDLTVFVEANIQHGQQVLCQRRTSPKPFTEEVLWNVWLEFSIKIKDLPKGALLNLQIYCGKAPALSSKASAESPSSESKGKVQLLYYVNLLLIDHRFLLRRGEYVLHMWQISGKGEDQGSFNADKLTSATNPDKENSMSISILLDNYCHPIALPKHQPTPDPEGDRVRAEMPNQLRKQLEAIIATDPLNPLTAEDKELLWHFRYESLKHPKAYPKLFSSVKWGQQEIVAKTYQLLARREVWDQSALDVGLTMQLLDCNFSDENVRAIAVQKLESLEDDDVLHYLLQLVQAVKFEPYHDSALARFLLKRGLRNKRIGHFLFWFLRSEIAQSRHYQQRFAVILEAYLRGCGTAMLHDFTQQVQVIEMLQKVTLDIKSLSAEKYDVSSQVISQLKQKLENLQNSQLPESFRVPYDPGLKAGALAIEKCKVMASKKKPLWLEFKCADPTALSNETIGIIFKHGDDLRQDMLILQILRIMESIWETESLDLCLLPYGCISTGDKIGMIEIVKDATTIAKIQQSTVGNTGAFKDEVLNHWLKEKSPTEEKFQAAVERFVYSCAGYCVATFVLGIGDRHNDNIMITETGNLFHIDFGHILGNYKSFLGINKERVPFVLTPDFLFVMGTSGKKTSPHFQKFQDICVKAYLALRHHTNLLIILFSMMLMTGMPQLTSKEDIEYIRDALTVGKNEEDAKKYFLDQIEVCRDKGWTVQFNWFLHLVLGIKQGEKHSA
T2 sequence (Q9JHG7 whole entry): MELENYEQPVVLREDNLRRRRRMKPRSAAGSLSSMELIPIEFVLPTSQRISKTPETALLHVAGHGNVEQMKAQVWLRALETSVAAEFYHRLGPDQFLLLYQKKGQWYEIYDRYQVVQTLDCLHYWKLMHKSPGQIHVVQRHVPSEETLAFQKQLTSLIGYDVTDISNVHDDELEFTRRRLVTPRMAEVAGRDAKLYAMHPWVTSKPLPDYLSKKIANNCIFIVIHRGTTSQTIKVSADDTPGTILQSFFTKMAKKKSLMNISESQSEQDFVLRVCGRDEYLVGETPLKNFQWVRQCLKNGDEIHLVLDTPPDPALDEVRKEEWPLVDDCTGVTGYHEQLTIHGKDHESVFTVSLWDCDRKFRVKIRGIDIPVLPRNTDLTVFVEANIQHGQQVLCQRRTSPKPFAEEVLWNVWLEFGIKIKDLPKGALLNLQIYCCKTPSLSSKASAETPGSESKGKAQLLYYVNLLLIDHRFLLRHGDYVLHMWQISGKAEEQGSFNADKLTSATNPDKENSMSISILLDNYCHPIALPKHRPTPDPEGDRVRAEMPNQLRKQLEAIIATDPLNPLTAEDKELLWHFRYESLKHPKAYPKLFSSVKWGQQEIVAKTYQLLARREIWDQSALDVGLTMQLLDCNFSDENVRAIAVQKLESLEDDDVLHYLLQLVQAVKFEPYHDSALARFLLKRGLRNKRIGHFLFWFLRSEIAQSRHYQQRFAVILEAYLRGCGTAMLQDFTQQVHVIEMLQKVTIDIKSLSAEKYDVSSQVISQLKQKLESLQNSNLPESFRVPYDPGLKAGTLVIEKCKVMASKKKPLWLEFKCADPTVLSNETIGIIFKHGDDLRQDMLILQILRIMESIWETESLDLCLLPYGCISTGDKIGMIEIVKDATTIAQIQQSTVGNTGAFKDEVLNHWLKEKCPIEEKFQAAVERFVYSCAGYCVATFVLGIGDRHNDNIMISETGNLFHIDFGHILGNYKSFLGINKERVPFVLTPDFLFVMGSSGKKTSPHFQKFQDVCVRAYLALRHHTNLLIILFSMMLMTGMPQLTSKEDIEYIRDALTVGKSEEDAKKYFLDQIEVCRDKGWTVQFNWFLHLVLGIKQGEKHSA
T6 sequence (P42338 whole entry): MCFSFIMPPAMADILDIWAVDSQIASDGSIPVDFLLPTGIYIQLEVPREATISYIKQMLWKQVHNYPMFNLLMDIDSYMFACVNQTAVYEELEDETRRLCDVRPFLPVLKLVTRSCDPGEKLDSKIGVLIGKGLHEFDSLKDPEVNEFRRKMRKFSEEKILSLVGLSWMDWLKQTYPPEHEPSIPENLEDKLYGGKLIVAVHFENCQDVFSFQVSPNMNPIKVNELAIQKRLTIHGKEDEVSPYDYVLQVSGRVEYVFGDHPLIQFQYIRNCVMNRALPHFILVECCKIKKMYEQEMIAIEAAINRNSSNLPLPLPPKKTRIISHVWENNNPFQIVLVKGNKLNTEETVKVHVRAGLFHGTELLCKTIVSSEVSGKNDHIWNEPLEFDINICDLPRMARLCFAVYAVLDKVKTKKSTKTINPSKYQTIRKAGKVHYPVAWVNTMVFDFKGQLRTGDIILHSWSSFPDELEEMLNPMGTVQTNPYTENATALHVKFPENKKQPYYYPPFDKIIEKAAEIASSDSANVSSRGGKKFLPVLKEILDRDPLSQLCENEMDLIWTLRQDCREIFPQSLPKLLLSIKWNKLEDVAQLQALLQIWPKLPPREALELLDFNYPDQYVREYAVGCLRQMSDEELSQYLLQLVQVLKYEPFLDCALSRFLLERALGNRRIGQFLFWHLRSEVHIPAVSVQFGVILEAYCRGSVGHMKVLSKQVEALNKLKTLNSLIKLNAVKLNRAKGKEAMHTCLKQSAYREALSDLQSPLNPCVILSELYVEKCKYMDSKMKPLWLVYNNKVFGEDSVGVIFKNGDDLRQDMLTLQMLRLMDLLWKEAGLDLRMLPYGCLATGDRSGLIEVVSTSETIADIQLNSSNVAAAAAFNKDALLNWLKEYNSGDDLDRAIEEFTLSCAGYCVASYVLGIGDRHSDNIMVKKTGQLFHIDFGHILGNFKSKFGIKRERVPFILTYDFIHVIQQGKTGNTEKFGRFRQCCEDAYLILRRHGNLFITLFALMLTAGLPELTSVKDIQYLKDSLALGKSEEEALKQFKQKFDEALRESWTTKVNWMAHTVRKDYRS
T6 sequence (P27986 whole entry partner): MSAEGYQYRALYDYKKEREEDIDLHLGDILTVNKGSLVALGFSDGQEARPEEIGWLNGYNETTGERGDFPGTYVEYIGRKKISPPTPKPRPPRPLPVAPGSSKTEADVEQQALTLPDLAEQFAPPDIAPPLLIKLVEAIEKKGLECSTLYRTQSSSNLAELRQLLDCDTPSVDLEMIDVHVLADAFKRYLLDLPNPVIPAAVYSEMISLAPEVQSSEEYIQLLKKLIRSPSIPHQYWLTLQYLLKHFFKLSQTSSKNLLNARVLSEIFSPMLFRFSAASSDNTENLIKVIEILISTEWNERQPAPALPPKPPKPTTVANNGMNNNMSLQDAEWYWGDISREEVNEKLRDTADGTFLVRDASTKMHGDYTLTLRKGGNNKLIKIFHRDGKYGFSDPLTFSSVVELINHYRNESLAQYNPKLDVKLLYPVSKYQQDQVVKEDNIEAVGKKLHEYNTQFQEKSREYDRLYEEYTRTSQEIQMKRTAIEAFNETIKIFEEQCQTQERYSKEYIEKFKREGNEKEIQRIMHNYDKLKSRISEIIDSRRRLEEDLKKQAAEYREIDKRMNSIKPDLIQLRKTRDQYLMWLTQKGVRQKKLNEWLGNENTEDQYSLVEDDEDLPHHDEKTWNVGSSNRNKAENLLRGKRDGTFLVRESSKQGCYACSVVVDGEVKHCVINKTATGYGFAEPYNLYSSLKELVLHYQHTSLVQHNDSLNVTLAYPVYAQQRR
T1 sequence (P42336 whole entry): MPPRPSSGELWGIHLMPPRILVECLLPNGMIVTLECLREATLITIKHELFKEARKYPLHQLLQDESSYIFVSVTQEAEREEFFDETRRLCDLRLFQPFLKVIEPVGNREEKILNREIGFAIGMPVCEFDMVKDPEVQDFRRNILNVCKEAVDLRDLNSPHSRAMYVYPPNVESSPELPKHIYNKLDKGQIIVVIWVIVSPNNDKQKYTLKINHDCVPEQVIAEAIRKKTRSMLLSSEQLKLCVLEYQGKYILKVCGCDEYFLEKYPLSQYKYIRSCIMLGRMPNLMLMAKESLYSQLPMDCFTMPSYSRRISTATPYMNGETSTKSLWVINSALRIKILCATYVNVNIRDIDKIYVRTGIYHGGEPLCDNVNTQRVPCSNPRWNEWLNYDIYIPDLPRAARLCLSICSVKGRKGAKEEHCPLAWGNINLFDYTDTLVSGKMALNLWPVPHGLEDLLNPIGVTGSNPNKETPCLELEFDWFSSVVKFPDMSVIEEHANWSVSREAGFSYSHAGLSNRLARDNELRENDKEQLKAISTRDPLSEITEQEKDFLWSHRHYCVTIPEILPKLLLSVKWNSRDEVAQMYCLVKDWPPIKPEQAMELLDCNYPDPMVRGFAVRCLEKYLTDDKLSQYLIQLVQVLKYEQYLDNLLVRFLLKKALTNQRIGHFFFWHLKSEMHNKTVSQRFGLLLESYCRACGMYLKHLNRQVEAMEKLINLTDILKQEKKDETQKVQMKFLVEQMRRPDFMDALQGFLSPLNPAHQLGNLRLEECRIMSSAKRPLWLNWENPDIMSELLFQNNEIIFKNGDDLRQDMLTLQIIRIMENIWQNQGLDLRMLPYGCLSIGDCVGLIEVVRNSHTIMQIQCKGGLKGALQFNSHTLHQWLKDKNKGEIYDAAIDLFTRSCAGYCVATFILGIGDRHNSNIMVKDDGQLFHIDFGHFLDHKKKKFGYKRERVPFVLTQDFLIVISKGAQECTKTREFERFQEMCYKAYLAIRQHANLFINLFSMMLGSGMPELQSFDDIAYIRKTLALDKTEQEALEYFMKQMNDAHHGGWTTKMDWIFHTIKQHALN
T1 sequence (P27986 whole entry partner): as the sequence (P27986 whole entry partner) above

Row | SMILES | inhibition at 10 µM (PI3Kα (p110α/p85α); read-out: PI3Kα % inhib) | EC50 (PI3Kγ) | inhibition at 1 µM (PI3Kγ (p110 gamma)) | inhibition at 10 µM (PI3Kγ (p110 gamma)) | EC50 (PI3Kα) | inhibition at 0.1 µM (PI3Kδ (p110δ/p85α); 0.1 μM, read-out: PI3Kδ % inhib) | inhibition at 1 µM (PI3Kδ (p110δ/p85α); read-out: PI3Kδ % inhib) | inhibition at 10 µM (PI3Kδ (p110δ/p85α); read-out: PI3Kδ % inhib) | inhibition at 10 µM (PI3Kβ (p110β/p85α)) | inhibition at 1 µM (PI3Kα (p110α/p85α); 1 μM, read-out: PI3Kα % inhib) | IC50 (PI3Kγ (p110 gamma)) | IC50 (PI3Kδ (p110δ/p85α)) | increase in gamma potency compared to analog without amino substituent on the purine ring (PI3Kγ (p110 gamma)) | IC50 (PI3Kα (p110α/p85α)) | IC50 (PI3Kβ (p110β/p85α))
1 | Cc1cccc2nc(C(C)n3cnc4c(N)ncnc43)c(-c3ccccc3)nc12 (stereo not drawn) [Compound Q6, 9-[1-(5-methyl-3-phenylquinoxalin-2-yl)ethyl]-9H-purin-6-amine] | 32% | > 20 µM | 48% | 89% | > 20 µM | 63% | 86% | 100% | 61% | – | – | – | – | – | –
2 | Cc1cccc2nc(C(C)Nc3ncnc4[nH]cnc34)c(-c3ccc(F)cc3)nc12 (stereo not drawn) [Compound Q7] | 88% | 3.59 µM | 61% | 95% | 15.2 µM | – | 71% | 100% | 77% | 28% | – | – | – | – | –
3 | CCC(Nc1ncnc2[nH]cnc12)c1nc2cccc(C)c2nc1-c1ccccc1 (stereo not drawn) [Compound Q8] | 50% | > 20 µM | 30% | 83% | > 20 µM | – | 58% | 100% | 53% | – | – | – | – | – | –
4 | CC(Nc1ncnc2[nH]cnc12)c1nc2ccccc2nc1-c1c(F)cccc1F (stereo not drawn) [Compound Q10] | 30% | > 20 µM | 12% | 82% | > 20 µM | – | 74% | 99% | 30% | – | – | – | – | – | –
5 | Cc1ccc(-c2nc3ccccc3nc2C(C)Nc2ncnc3[nH]cnc23)cc1 (stereo not drawn) [Compound Q11] | 53% | > 20 µM | – | 79% | > 20 µM | – | 45% | 99% | 76% | – | – | – | – | – | –
6 | Nc1ncnc2c1ncn2Cc1nc2ccccc2nc1-c1ccccc1 [Compound Q13] | – | – | – | – | – | – | – | – | – | – | 46.5 µM | 1.17 µM | – | – | –
7 | c1ccc(-c2nc3ccccc3nc2CSc2ncnc3[nH]cnc23)cc1 [Compound Q14] | – | – | – | – | – | – | – | – | – | – | 17.5 µM | 0.95 µM | – | – | –
8 | Nc1nc(SCc2nc3ccccc3nc2-c2ccccc2)c2nc[nH]c2n1 [Compound Q15] | – | – | – | – | – | – | – | – | – | – | 2.38 µM | 0.25 µM | 8 × | – | –
9 | c1ccc(-c2nc3ccccc3nc2CNc2ncnc3[nH]cnc23)cc1 [Compound Q16] | – | – | – | – | – | – | – | – | – | – | 20.5 µM | 0.19 µM | – | 51 µM | 14.5 µM
10 | Nc1nc(NCc2nc3ccccc3nc2-c2ccccc2)c2nc[nH]c2n1 [Compound Q17] | – | – | – | – | – | – | – | – | – | – | 0.692 µM | 0.075 µM | 30 × | 100 µM | 8.5 µM
